According to patent US20220226299A1 (NIPPON CHEMIPHAR CO., LTD., priority 2019, published 2022):

Biological target: T1, human Cav3.2 channels (Homo sapiens, UniProt O95180)
T1 construct: human Cav3.2 channel ORF (Open Reading Frame) gene; expressed in transfected cells; host or cells: HEK293 cells (ATCC No. CRL-1573), pcDNA3.1(+) plasmid
Assay: T-type calcium blocking action: intracellular calcium (Fluo-4 AM fluorescence) in HEK293 cells steadily expressing human Cav3.2 channels
Type: cell-based
Conditions: HEK293 cells expressing human Cav3.2; KCl-stimulated calcium influx, Fluo-4 fluorescence; Tables 1 to 3
How it was run: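 Fluo-4 AM-loaded stable HEK293 cells were preincubated 15 min at RT with compound (0.1% DMSO final) in choline-based buffer (pH 7.3). Gramicidin was added, then KCl-induced calcium influx was read at 485/510 nm for 10 s. Percent block came from peak rise over baseline, and IC50 from log-concentration plots.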

T1 sequence (O95180 whole entry): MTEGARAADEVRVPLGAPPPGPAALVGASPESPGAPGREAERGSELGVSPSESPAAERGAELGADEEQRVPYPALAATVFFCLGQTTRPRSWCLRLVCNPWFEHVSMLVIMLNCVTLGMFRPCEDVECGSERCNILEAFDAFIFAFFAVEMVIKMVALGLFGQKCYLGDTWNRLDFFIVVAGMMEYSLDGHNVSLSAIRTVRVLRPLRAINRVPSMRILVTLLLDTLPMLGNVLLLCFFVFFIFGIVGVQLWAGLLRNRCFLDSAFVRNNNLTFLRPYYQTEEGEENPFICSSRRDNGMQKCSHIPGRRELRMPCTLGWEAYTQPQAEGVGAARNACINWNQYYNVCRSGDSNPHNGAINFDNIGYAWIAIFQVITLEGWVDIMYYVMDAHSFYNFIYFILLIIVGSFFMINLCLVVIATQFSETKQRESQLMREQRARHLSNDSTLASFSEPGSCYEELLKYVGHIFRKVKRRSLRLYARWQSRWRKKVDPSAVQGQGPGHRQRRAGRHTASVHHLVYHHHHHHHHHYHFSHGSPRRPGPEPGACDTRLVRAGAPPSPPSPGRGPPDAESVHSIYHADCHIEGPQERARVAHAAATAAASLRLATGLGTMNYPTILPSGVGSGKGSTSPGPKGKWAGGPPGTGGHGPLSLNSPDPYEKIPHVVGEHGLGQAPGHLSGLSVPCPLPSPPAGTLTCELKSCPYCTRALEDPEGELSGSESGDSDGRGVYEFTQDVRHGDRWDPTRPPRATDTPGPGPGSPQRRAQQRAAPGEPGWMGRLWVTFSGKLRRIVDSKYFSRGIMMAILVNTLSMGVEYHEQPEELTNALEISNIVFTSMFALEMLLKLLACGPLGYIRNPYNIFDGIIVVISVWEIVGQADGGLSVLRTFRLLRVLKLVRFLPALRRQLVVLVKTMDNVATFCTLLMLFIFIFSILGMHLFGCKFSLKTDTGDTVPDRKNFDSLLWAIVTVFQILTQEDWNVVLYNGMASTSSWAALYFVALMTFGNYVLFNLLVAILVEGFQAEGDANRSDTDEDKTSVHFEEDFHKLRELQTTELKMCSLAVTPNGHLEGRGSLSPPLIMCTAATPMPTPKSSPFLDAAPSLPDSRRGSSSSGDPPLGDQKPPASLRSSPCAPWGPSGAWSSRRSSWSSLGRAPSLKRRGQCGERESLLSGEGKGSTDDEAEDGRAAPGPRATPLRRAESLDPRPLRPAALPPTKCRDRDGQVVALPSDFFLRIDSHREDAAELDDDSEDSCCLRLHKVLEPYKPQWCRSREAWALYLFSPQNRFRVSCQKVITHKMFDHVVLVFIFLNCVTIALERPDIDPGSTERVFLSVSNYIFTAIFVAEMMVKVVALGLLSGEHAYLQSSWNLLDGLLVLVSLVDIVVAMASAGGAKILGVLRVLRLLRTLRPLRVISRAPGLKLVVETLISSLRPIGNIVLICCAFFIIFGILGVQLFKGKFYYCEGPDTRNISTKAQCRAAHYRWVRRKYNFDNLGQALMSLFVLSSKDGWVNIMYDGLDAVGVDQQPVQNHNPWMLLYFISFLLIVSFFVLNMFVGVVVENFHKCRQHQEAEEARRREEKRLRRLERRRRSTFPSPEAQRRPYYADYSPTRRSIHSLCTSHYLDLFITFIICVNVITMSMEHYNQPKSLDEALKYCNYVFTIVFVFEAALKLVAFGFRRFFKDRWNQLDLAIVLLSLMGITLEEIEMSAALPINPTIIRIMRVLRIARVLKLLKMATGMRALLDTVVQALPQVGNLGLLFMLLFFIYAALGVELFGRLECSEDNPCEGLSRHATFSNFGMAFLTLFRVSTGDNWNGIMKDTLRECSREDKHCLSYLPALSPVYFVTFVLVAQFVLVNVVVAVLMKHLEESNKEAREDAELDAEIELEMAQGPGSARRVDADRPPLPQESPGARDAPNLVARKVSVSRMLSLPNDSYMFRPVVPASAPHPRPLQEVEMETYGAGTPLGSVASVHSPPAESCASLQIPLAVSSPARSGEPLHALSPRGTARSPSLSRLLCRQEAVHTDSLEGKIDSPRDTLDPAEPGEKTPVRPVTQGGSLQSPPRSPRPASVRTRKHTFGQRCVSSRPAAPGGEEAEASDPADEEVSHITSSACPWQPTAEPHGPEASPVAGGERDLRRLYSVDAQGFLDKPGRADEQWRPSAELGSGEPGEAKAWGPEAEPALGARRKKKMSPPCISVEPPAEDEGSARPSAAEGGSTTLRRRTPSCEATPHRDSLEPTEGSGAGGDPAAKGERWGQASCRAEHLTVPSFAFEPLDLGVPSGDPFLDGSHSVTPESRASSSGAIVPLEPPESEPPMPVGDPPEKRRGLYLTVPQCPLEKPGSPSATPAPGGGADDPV

SMILES	IC50 [nM]
COC(=O)C1(NC(=O)Cc2ccc(C(F)(F)F)cc2)CCN(c2cncc(C(F)(F)F)c2)C1 (stereo not shown) [Example 38, Methyl 3-(2-(4-(trifluoromethyl)phenyl)acetamido)-1-(5-(trifluoromethyl)pyridin-3-yl)pyrrolidine-3-carboxylate]	35
O=C(N[C@@H]1CCN(c2cncc(C(F)(F)F)c2)C1)[C@H]1C[C@@H]1c1nc2ccc(F)cc2o1 [Example 44, (1S,2S)-2-(6-fluorobenzo[d]oxazol-2-yl)-N—((R)-1-(5-(trifluoromethyl)pyridin-3-yl)pyrrolidin-3-yl)cyclopropane-1-carboxyamide]	14
O=C(Cc1ccc(C2CC2)cc1)N[C@H]1CN(c2nc(C(F)(F)F)cs2)CC12CC2 [Example 8, (R)-2-(4-cyclopropylphenyl)-N-(5-(4-(trifluoromethyl)thiazol-2-yl)-5-azaspiro[2.4]heptan-7-yl) acetamide]	200
O=C(N[C@@H]1CCN(c2cncc(C(F)(F)F)c2)C1)C(O)c1ccc(Br)cc1 (stereo partly drawn) [Example 25, 2-(4-Bromophenyl)-2-hydroxy-N—((R)-1-(5-(trifluoromethyl)pyridin-3-yl)pyrrolidin-3-yl)acetamide]	2000
O=C(Cc1ccc(N2C[C@@H]3CC[C@H]2CO3)cc1)N[C@@H]1CCN(c2ccc(C(F)(F)F)nc2)C1 [Example 156, 2-(4-((1S,4S)-2-oxa-5-azabicyclo[2.2.2]octan-5-yl)phenyl)-N—((R)-1-(6-(trifluoromethyl)pyridin-3-yl)pyrrolidin-3-yl)acetamide]	1300
O=C(Cc1ccc(C2CC2)cc1)N[C@@H]1CCN(c2cc(C(F)(F)F)ccn2)C1 [Example 182, (R)-2-(4-cyclopropylphenyl)-N-(1-(4-(trifluoromethyl)pyridin-2-yl)pyrrolidin-3-yl)acetamide]	720
O=C(N[C@@H]1CCCN(c2ccc(C(F)(F)F)cc2)C1)[C@H]1C[C@@H]1c1nc2ccccc2[nH]1 [Example 65, (1S,2S)-2-(1H-benzo[d]imidazol-2-yl)-N—((R)-1-(4-(trifluoromethyl)phenyl)piperidin-3-yl)cyclopropane-1-carboxyamide]	8900
Cn1ncc2cc(CC(=O)N[C@@H]3CCN(c4nc(C(F)(F)F)cs4)C3)ccc21 [Example 143, (R)-2-(1-methyl-1H-indazol-5-yl)-N-(1-(4-(trifluoromethyl)thiazol-2-yl)pyrrolidin-3-yl)acetamide]	120
O=C(Cc1ccc(C(F)(F)F)cc1)NC1(C(F)(F)F)CCN(c2cncc(C(F)(F)F)c2)C1 (stereo not shown) [Example 162, N-(3-(trifluoromethyl)-1-(5-(trifluoromethyl)pyridin-3-yl)pyrrolidin-3-yl)-2-(4-(trifluoromethyl)phenyl)acetamide]	560
COc1ncc(N2CC[C@@H](NC(=O)Cc3ccc(C(C)C)cc3)C2)cc1C(F)(F)F [Example 110, (R)-2-(4-isopropylphenyl)-N-(1-(6-methoxy-5-(trifluoromethyl)pyridin-3-yl)pyrrolidin-3-yl)acetamide]	290
O=C(N[C@@H]1CCN(c2ccc(C(F)(F)F)nc2)C1)[C@H]1C[C@@H]1c1nc2cc(F)ccc2o1 [Example 51]	120

Next, values leading:

IC50 [nM]	SMILES
130	CC1(C)CN(c2ccc(CC(=O)N[C@@H]3CCN(c4cncc(C(F)(F)F)c4)C3)cc2)CCO1 [Example 145, (R)-2-(4-(2,2-dimethylmorpholino)phenyl)-N-(1-(5-(trifluoromethyl)pyridin-3-yl)pyrrolidin-3-yl)acetamide]
1500	O=C(Cc1ccc(C2CC2)cc1)N[C@@H]1CCN(c2cc(F)cc(C(F)(F)F)c2)C1 [Example 136, (R)-2-(4-cyclopropylphenyl)-N-(1-(3-fluoro-5-(trifluoromethyl)phenyl)pyrrolidin-3-yl)acetamide]
230	CC(C)(C(=O)N[C@@H]1CCN(c2cncc(C(F)(F)F)c2)C1)c1ccc(C2CC2)cc1 [Example 135, (R)-2-(4-cyclopropylphenyl)-2-methyl-N-(1-(5-(trifluoromethyl)pyridin-3-yl)pyrrolidin-3-yl)propanamide]
90	Cc1ncc(N2CC[C@@H](NC(=O)Cc3ccc(C4CC4)cc3)C2)cc1C(F)(F)F [Example 18, (R)-2-(4-cyclopropylphenyl)-N-(1-(6-methyl-5-(trifluoromethyl)pyridin-3-yl)pyrrolidin-3-yl)acetamide]
44	O=C(Cc1ccc(C(F)(F)F)cc1)N[C@@H]1CCN(c2cncc(C(F)(F)F)c2)C1 [Example 123, (R)-2-(4-(trifluoromethyl)phenyl)-N-(1-(5-(trifluoromethyl)pyridin-3-yl)pyrrolidin-3-yl)acetamide]
3500	CC(C)(O)c1cncc(N2CC[C@@H](NC(=O)Cc3ccc(C4CC4)cc3)C2)c1 [Example 19, (R)-2-(4-cyclopropylphenyl)-N-(1-(5-(2-hydroxypropan-2-yl)pyridin-3-yl)pyrrolidin-3-yl)acetamide]
19	COCCN(C)c1ccc(CC(=O)N[C@@H]2CCN(c3cncc(C(F)(F)F)c3)C2)cc1 [Example 88, (R)-2-(4-((2-methoxyethyl)(methyl)amino)phenyl)-N-(1-(5-(trifluoromethyl)pyridin-3-yl)pyrrolidin-3-yl)acetamide]
240	COCC1(NC(=O)Cc2ccc(C3CC3)cc2)CCN(c2cncc(C(F)(F)F)c2)C1 (stereo not shown) [Example 105, 2-(4-cyclopropylphenyl)-N-(3-(methoxymethyl)-1-(5-(trifluoromethyl)pyridin-3-yl)pyrrolidin-3-yl)acetamide]
5200	O=C(Cc1ccc(C2CC2)cc1)NC1(C(=O)O)CCN(c2cncc(C(F)(F)F)c2)C1 (stereo not shown) [Example 14, 3-(2-(4-cyclopropylphenyl)acetamido)-1-(5-(trifluoromethyl)pyridin-3-yl)pyrrolidine-3-carboxylic acid]
170	C[C@@]1(NC(=O)Cc2ccc(N3CCOCC3)cc2)CCN(c2cncc(C(F)(F)F)c2)C1 [Example 147, (R)—N-(3-methyl-1-(5-(trifluoromethyl)pyridin-3-yl)pyrrolidin-3-yl)-2-(4-morpholinophenyl)acetamide]
240	O=C(N[C@@H]1CCN(c2cncc(C(F)(F)F)c2)C1)C1(c2ccc(C(F)(F)F)cc2)CC1 [Example 34, (R)-1-(4-(trifluoromethyl)phenyl)-N-(1-(5-(trifluoromethyl)pyridin-3-yl)pyrrolidin-3-yl)cyclopropane-1-carboxyamide]
62	O=C(Cc1ccc2cc[nH]c2c1)N[C@@H]1CCN(c2cncc(C(F)(F)F)c2)C1 [Example 124, (R)-2-(1H-indol-6-yl)-N-(1-(5-(trifluoromethyl)pyridin-3-yl)pyrrolidin-3-yl)acetamide]
200	C[C@@]1(NC(=O)Cc2ccc(C3CC3)cc2)CCN(c2cncc(C(F)(F)F)c2)C1 [Example 148, (R)-2-(4-cyclopropylphenyl)-N-(3-methyl-1-(5-(trifluoromethyl)pyridin-3-yl)pyrrolidin-3-yl)acetamide]
7.3	O=C(Cc1ccc(N2CCC(F)(F)C2)cc1)N[C@@H]1CCN(c2cncc(C(F)(F)F)c2)C1 [Example 176, (R)-2-(4-(3,3-difluoropyrrolidin-1-yl)phenyl)-N-(1-(5-(trifluoromethyl)pyridin-3-yl)pyrrolidin-3-yl)acetamide]
